Assay results as given in ChEMBL document CHEMBL1201862, “PubChem BioAssay data set” (2004).
The source made the active and inactive calls.

Legend:
[1] = viability of uninfected HEp-2 cells – cell-based, HTS, cytotoxicity control for RSV inhibitor project, dose response (AID 2410); type: functional; conditions: human respiratory syncytial virus
[2] = system: H4; test: Luminescence Cell-Based Dose Response HTS to Identify Activators of 5'UTR Stem-Loop Driven Prion Protein mRNA Translation in H4 Neuroglioblastoma Cells. [Related pubchem assays: 1829 (Project Summary), 1814 (Primary HTS)]; type: functional; conditions: Homo sapiens
[3] = Luminescence Cell-Based Dose Response HTS to Identify Activators of Luciferase Translation or Activity in H4 […] Cells. [Related pubchem assays: 1829 (Project Summary), 1814 (Primary HTS)]; type: functional
[4] = target: T1, Cytochrome P450 1A2 (Homo sapiens, UniProt P05177);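 further: PubChem cytochrome P450 panel assay, CYP1A2 panel member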
T1 sequence (P05177 whole entry): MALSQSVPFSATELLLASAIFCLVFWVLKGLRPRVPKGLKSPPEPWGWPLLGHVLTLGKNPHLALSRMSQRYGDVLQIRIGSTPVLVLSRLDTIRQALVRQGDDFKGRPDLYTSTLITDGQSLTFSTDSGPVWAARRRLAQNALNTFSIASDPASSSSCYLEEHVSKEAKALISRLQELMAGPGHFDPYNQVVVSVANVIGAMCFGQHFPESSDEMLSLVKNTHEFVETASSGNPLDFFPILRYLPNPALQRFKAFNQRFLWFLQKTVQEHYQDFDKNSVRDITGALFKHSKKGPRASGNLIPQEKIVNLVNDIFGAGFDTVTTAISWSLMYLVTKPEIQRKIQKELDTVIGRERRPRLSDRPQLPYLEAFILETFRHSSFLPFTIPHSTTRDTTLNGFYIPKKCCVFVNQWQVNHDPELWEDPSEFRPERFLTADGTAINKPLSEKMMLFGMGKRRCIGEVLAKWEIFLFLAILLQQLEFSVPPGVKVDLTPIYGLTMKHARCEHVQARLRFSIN

[5] = target: Cytochrome P450 3A4 (Homo sapiens, UniProt P08684);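 further: CYP3A4 tested as one member of a cytochrome P450 panel screen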
[6] = target: Cytochrome P450 2C19 (Homo sapiens, UniProt P33261); test: Cytochrome panel assay with activity outcomes. Panel member name: p450-cyp2c19 Compounds with AC50 equal or less than 10 uM are considered active; type: functional; conditions: read-out: AC50
[7] = target: Cytochrome P450 2D6 (Homo sapiens, UniProt P10635)
[8] = target: Cytochrome P450 2C9 (Homo sapiens, UniProt P11712)
Cytochrome P450 2C9, sequence (P11712 whole entry): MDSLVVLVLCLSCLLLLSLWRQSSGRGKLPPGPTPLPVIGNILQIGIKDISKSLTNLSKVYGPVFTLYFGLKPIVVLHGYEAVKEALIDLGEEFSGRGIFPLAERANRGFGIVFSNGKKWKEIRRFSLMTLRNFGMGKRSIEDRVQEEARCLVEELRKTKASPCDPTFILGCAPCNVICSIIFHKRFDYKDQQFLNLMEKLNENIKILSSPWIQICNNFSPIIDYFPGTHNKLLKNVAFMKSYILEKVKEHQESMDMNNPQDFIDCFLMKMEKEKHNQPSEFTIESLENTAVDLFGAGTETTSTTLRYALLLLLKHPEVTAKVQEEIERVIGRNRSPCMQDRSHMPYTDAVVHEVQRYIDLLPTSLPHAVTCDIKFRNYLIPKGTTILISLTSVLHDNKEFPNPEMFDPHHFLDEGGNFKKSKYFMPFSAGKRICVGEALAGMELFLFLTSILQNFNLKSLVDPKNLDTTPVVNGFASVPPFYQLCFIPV

Cytochrome P450 2C19, sequence (P33261 whole entry): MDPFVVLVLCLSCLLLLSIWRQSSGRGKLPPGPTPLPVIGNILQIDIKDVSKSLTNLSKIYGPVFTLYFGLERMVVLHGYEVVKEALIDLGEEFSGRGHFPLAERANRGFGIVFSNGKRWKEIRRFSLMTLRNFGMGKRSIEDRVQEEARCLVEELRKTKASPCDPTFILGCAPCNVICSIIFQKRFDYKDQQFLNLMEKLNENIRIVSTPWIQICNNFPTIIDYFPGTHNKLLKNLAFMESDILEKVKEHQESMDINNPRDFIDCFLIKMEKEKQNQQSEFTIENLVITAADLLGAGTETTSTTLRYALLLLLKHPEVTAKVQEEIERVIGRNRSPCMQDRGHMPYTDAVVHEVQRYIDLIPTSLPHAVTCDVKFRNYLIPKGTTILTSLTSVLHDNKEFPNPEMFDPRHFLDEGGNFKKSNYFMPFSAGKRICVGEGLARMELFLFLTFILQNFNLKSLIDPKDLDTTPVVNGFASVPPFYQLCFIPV
Cytochrome P450 3A4, sequence (P08684 whole entry): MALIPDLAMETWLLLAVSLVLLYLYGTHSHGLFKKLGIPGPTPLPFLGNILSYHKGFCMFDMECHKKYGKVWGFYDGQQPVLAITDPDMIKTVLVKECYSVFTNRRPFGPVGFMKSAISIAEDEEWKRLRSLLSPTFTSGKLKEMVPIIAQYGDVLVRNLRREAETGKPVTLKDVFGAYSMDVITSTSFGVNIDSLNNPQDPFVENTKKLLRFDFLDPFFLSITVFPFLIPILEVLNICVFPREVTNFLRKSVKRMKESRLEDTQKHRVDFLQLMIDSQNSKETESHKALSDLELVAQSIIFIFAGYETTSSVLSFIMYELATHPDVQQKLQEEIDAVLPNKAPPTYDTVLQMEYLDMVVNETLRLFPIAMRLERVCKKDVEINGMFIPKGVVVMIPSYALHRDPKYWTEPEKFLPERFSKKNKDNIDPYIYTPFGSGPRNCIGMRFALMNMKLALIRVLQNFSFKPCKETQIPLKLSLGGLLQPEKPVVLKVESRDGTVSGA
Cytochrome P450 2D6, sequence (P10635 whole entry): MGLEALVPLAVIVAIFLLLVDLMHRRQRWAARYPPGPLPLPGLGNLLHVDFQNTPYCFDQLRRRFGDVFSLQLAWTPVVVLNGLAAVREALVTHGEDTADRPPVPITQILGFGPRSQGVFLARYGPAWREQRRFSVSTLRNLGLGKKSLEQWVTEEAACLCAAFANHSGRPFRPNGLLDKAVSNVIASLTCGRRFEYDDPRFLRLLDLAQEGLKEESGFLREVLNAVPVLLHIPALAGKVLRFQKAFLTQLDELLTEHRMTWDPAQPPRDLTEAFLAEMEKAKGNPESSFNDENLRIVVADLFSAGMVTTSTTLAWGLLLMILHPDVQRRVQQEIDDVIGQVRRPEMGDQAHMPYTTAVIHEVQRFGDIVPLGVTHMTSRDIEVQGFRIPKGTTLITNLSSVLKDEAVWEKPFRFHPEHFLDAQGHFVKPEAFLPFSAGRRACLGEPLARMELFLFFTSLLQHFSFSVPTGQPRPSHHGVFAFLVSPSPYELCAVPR

CC(C)(C)Nc1nc(-c2ccc3c(c2)CCN3C(=O)C2CC2)cs1
CC50 [1]: 25.2 µM (active)

O=C(CN1CCC(n2nnc3ccccc32)CC1)Nc1ccc2c(c1)CCC2
CC50 [1]: 49.5 µM (active)

N#CC1=C2SC=C(c3ccc(Br)cc3)N2CCCC1=O
EC50 [2]: 16.9 µM (active) | EC50 [3]: 0.864 µM (active)

C[C@]1(c2ccccc2)OC(C(=O)O)=CC1=O
AC50 [4]: 39.8 µM (inconclusive)

CO[C@H]1[C@H](O[C@H]2O[C@@H](C)[C@@H](O[C@@H]3C[C@](C)(O)[C@H](OC(=O)CC(C)C)[C@H](C)O3)[C@@H](N(C)C)[C@@H]2O)[C@@H](CC=O)C[C@@H](C)[C@@H](O)/C=C\C=C/C[C@@H](C)OC(=O)C[C@H]1OC(C)=O
AC50 [5]: 12.6 µM (inconclusive)

COC(=O)[C@@]1(Cc2ccc(F)cc2)[C@H]2c3cc(C(=O)N4CCCC4)n(Cc4c(CO)ncc(C)c4O)c3C[C@H]2CN1C(=O)c1ccccc1
AC50 [4]: 20 µM (inconclusive) | AC50 [6]: 39.8 µM (inconclusive)

O=c1c(-c2cccc(Cl)c2)nc2cncnc2n1Cc1ccccc1Cl
AC50 [5]: 12.6 µM (inconclusive) | AC50 [7]: 15.8 µM (inconclusive)

COC(=O)c1cccc(NC(=O)CCCOc2ccccc2)c1
AC50 [5]: 12.6 µM (inconclusive)

COCC(=O)N1CCC2(CCCN(c3ccccc3)C2)CC1
AC50 [5]: 7.94 µM (inconclusive)

Cc1cccc(N(C)C(=O)c2cc3cc4ccc(C)cc4nc3o2)c1
EC50 [2]: 14.3 µM (active) | EC50 [3]: 1.69 µM (active)

COc1ccc(C2SCC(=O)Nc3c2c(C)nn3C2CCOC(C)(C)C2)cc1 (stereo not drawn)
AC50 [8]: 25.1 µM (inconclusive) | AC50 [5]: 28.2 µM (inconclusive) | AC50 [6]: 39.8 µM (inconclusive)

Cc1ccccc1Cn1c(Cc2ccccc2)nc2ccccc21
AC50 [4]: 17.8 µM (inconclusive) | AC50 [5]: 31.6 µM (inconclusive) | AC50 [7]: 31.6 µM (inconclusive)

Cc1ccccc1N(C(=O)Cn1nnc(-c2cccs2)n1)C(C(=O)NCCC(C)C)c1ccco1 (stereo not drawn)
CC50 [1]: 40.4 µM (active)

Cc1noc(C)c1C(=O)N1CCC2(CC1)CCN(c1ccncc1)CC2
AC50 [5]: 3.98 µM (inconclusive) | AC50 [7]: 12.6 µM (inconclusive)

CN(CCC#N)C(=O)c1ccc(CNS(=O)(=O)c2ccc(F)cc2)cc1
AC50 [8]: 10 µM (inconclusive) | AC50 [4]: 2 µM (inconclusive) | AC50 [5]: 0.112 µM (inconclusive)

Nc1ccc(C#Cc2c(-c3ccsc3)oc3ccc(N4CCOCC4)cc23)cc1
CC50 [1]: 31.5 µM (active)

CN(C)c1ncc2nc(-c3cccc(C#N)c3)c(=O)n(C[C@H]3CCCO3)c2n1
AC50 [4]: 3.16 µM (inconclusive) | AC50 [7]: 2.51 µM (inconclusive)

CC(C)CC(C(=O)OCC(=O)Nc1ncc(Cl)cc1Cl)N1C(=O)c2ccccc2C1=O (stereo not drawn)
AC50 [4]: 11.2 µM (inconclusive) | AC50 [5]: 31.6 µM (inconclusive)

C[C@H](CN(C)C)C(C#N)(c1ccccc1)c1ccccc1
AC50 [5]: 3.98 µM (inconclusive) | AC50 [7]: 3.16 µM (inconclusive)

COc1ccc(-c2cc(C(=O)Nc3cc(OC)c(OC)c(OC)c3)no2)cc1OC
AC50 [5]: 10 µM (inconclusive) | AC50 [6]: 39.8 µM (inconclusive)

COc1ccc(NC(=O)NCc2cccn2C)c(OC)c1
AC50 [5]: 22.4 µM (inconclusive) | AC50 [7]: 0.501 µM (inconclusive)

O=C(COc1ccc2ccccc2c1)N1c2ccccc2Sc2ccccc21
CC50 [1]: 26.8 µM (active)

Fc1ccc(C2CC(c3ccco3)=NN2c2ccccc2)cc1 (stereo not drawn)
AC50 [5]: 0.0251 µM (inconclusive)

O=c1c(-c2ccccc2)nc2cnc(N3CCOCC3)nc2n1C[C@H]1CCCO1
AC50 [5]: 39.8 µM (inconclusive)

COc1ccc(-c2nc(C#N)c(N3CCC(C(N)=O)CC3)o2)cc1OC
AC50 [4]: 12.6 µM (inconclusive) | AC50 [5]: 39.8 µM (inconclusive) | AC50 [6]: 22.4 µM (inconclusive)

CSc1nc(C)cc(SC(C(C)=O)C(=O)Nc2ccccc2)n1 (stereo not drawn)
AC50 [8]: 1.58 µM (inconclusive) | AC50 [4]: 15.8 µM (inconclusive) | AC50 [5]: 14.1 µM (inconclusive)

C/C(=N\NC(=O)COc1ccc(C)cc1C(C)C)c1ccc(-n2ccnc2)cc1
CC50 [1]: 24.3 µM (active)

COC(=O)c1ccc(/C=N\NC(=O)c2ccc(C)cc2Cl)cc1
AC50 [4]: 10 µM (inconclusive)
